Experimental data published in patent US20260000692A1, “Substituted N-(Pyridin-2-yl)Acetamide Derivatives as CDK12/13 Inhibitors” (Aurigene Oncology Limited, priority 2022, published 2026).
Like-named read-outs stand apart in the source and are kept apart here.

Molecular target: CDK12 (Homo sapiens, UniProt Q9NYV4)
Experiment: Biochemical assay for CDK12 (LANCE TR-FRET, IC50 determination)
Conditions: for IC50: CDK12, IC50 class; for inhibition at 10 µM: read-out: CDK12 % Inhibition @ 10 μM
How it was run: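 30 nM CDK12 phosphorylated 100 nM ULight-4E-BP1 (Thr37/Thr46) peptide at 100 µM ATP, as printed, in HEPES pH 7.5 buffer with MgCl2 and DTT. Compound and enzyme were preincubated 60 min, then reacted 60 min at room temperature before stopping with EDTA and Eu anti-phospho antibody. TR-FRET 665/615 ratio gave sigmoidal IC50 fits.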

Chain of CDK12 (Q9NYV4 whole entry): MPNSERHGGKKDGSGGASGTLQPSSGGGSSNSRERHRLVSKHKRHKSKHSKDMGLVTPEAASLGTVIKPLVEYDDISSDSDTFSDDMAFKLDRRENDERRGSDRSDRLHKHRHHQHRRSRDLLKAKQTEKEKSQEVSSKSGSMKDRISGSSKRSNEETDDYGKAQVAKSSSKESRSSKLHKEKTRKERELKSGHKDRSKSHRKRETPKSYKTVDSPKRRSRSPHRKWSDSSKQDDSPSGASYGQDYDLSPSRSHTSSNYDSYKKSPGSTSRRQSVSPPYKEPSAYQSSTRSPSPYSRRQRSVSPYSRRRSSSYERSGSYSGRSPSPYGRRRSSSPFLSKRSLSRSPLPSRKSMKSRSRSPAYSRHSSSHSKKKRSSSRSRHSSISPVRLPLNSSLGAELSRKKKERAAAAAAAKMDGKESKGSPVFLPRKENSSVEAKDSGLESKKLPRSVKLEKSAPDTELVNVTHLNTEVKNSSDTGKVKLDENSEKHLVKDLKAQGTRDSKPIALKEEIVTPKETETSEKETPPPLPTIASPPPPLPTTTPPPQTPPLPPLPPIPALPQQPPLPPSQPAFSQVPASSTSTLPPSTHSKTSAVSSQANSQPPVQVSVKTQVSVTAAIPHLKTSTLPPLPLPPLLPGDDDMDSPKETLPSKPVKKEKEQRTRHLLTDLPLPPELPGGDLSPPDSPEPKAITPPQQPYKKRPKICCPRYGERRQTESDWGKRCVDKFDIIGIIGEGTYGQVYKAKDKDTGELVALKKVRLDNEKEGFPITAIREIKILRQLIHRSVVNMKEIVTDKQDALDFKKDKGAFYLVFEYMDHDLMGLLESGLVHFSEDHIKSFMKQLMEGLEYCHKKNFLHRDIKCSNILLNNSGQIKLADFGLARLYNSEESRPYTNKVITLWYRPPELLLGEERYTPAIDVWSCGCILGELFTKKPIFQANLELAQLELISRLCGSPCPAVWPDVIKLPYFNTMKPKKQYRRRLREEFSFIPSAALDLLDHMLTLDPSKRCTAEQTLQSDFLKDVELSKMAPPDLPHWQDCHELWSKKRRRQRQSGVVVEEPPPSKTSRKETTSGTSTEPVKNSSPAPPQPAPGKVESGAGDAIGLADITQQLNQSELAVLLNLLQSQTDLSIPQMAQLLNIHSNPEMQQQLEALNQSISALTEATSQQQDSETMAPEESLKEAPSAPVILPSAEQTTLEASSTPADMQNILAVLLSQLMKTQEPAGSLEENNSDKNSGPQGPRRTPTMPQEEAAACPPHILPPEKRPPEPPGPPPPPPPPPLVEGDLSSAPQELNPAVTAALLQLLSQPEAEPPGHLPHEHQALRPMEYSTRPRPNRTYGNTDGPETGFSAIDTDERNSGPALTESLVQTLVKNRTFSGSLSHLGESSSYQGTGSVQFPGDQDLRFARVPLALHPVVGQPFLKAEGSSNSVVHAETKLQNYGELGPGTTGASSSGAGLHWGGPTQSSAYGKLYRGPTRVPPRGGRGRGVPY
Chain of CDK12 (O75909 whole entry partner): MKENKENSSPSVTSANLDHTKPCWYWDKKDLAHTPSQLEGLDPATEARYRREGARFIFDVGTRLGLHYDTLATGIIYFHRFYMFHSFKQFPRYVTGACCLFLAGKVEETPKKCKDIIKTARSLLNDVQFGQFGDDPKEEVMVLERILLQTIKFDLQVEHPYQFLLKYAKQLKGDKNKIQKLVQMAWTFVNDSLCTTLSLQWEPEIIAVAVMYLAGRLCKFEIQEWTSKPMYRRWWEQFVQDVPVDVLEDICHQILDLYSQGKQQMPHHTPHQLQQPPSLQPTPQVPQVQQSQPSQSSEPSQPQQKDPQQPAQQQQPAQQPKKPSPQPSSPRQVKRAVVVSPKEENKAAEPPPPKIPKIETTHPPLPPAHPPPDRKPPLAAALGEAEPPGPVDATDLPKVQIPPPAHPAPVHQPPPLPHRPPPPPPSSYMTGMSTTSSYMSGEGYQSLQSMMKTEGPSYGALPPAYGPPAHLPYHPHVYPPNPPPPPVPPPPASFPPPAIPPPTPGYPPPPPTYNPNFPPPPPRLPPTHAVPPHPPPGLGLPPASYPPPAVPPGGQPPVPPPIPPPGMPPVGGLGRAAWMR

Compound	IC50 (read-out: IC50 μM (in range))	inhibition at 10 µM (compound at 10 μM)	CDK12 % Inhibition @ 10 μM (compound at 10 μM, 10 µM)	IC50 (IC50 μM (in range))	inhibition at 10 µM
CNC(=O)C(C)Oc1cc(NC(=O)Cc2ccc(C3=CCCN(C#N)C3)nc2)ncc1Cl (single isomer, unassigned) [Compound 57, 2-((5-chloro-2-(2-(1′-cyano-1′,2′,5′,6′-tetrahydro-[2,3′-bipyridin]-5-yl)acetamido)pyridin-4-yl)oxy)-N-methylpropanamide]	< 0.01 µM	78%			
COc1cc(NC(=O)Cc2ccc(C3=CCN(C#N)C(C)C3)nc2)ncc1Cl (single isomer, unassigned) [Compound 68, N-(5-chloro-4-methoxypyridin-2-yl)-2-(1′-cyano-2′-methyl-1′,2′,3′,6′-tetrahydro-[2,4′-bipyridin]-5-yl)acetamide]	< 0.01 µM		87%		
COC[C@@H](C)Oc1cc(NC(=O)Cc2ccc(C3=CCCN(C#N)C3)nc2)ncc1Cl [Compound 36, (R)-N-(5-chloro-4-((1-methoxypropan-2-yl)oxy)pyridin-2-yl)-2-(1′-cyano-1′,2′,5′,6′-tetrahydro-[2,3′-bipyridin]-5-yl)acetamide]	< 0.01 µM	95%			
CN1CCC[C@H](Oc2cc(NC(=O)Cc3ccc(C4=CCN(C#N)CC4)nc3)ncc2Cl)C1 [Compound 33, (S)-N-(5-chloro-4-((1-methylpiperidin-3-yl)oxy)pyridin-2-yl)-2-(1′-cyano-1′,2′,3′,6′-tetrahydro-[2,4′-bipyridin]-5-yl)acetamide]	< 0.01 µM	88%			
CNC(=O)C(C)Oc1cc(NC(=O)Cc2ccc(C3=CCN(C#N)CC3)nc2)ncc1Cl (stereo not drawn) [Compound 1, 2-((5-chloro-2-(2-(1′-cyano-1′,2′,3′,6′-tetrahydro-[2,4′-bipyridin]-5-yl)acetamido)pyridin-4-yl)oxy)-N-methylpropanamide]	< 0.01 µM	92%			
CNC(=O)C(C)Oc1cc(NC(=O)Cc2ccc(C3CCN(C#N)CC3)nc2)ncc1Cl (single isomer, unassigned) [Compound 83, 2-((5-chloro-2-(2-(6-(1-cyanopiperidin-4-yl)pyridin-3-yl)acetamido)pyridin-4-yl)oxy)-N-methylpropanamide]	0.01 to 0.1 µM	84%			
N#CN1CCC=C(c2ccc(CC(=O)Nc3cc(O[C@@H]4CCOC4)c(Cl)cn3)cn2)C1 [Compound 40, (R)-N-(5-chloro-4-((tetrahydrofuran-3-yl)oxy)pyridin-2-yl)-2-(1′-cyano-1′,2′,5′,6′-tetrahydro-[2,3′-bipyridin]-5-yl)acetamide]	< 0.01 µM	91%			
CN1CC[C@H](Oc2cc(NC(=O)Cc3ccc(C4=CCCN(C#N)C4)nc3)ncc2Cl)C1 [Compound 39, (S)-N-(5-chloro-4-((1-methylpyrrolidin-3-yl)oxy)pyridin-2-yl)-2-(1′-cyano-1′,2′,5′,6′-tetrahydro-[2,3′-bipyridin]-5-yl)acetamide]	0.01 to 0.1 µM	98%			
COc1cc(NC(=O)Cc2ccc(C3=CC4CCC(C3)N4C#N)nc2)ncc1Cl (stereo not drawn) [Compound 73, N-(5-chloro-4-methoxypyridin-2-yl)-2-(6-(8-cyano-8-azabicyclo[3.2.1]oct-2-en-3-yl)pyridin-3-yl)acetamide]	< 0.01 µM	87%			
CN1CCC[C@@H](Oc2cc(NC(=O)Cc3ccc(C4=CCN(C#N)CC4)nc3)ncc2Cl)C1 [Compound 32, (R)-N-(5-chloro-4-((1-methylpiperidin-3-yl)oxy)pyridin-2-yl)-2-(1′-cyano-1′,2′,3′,6′-tetrahydro-[2,4′-bipyridin]-5-yl)acetamide]	< 0.01 µM	84%			
COc1cc(NC(=O)Cc2ccc(C3CC4CN(C#N)CC4C3)nc2)ncc1Cl (stereo not drawn) [Compound 76, N-(5-chloro-4-methoxypyridin-2-yl)-2-(6-(2-cyanooctahydrocyclopenta[c]pyrrol-5-yl)pyridin-3-yl)acetamide]	< 0.01 µM	90%			
COc1cc(NC(=O)Cc2ccc(C3=CC4CCC3CN4C#N)nc2)ncc1Cl (stereo not drawn) [Compound 81, N-(5-chloro-4-methoxypyridin-2-yl)-2-(6-(2-cyano-2-azabicyclo[2.2.2]oct-5-en-5-yl)pyridin-3-yl)acetamide]	< 0.01 µM	87%			
COCCOc1cc(NC(=O)Cc2ccc(C3=CCN(C#N)CC3)nc2)ncc1Cl [Compound 22, N-(5-chloro-4-(2-methoxyethoxy)pyridin-2-yl)-2-(1′-cyano-1′,2′,3′,6′-tetrahydro-[2,4′-bipyridin]-5-yl)acetamide]	< 0.01 µM	91%			
CN(C)C(=O)Oc1cc(NC(=O)Cc2ccc(C3=CCN(C#N)CC3)nc2)ncc1Cl [Compound 100, 5-chloro-2-(2-(1′-cyano-1′,2′,3′,6′-tetrahydro-[2,4′-bipyridin]-5-yl)acetamido)pyridin-4-yl dimethylcarbamate]				0.01 to 0.1 µM	77%

Further lines, with some results ahead:

IC50 (read-out: IC50 μM (in range))	inhibition at 10 µM (compound at 10 μM)	CDK12 % Inhibition @ 10 μM (compound at 10 μM, 10 µM)	Compound	IC50 (IC50 μM (in range))	inhibition at 10 µM
< 0.01 µM	88%		COc1cc(NC(=O)Cc2cnc(C3=CCCN(C#N)C3)c(OC)c2)ncc1Cl [Compound 117, N-(5-chloro-4-methoxypyridin-2-yl)-2-(1′-cyano-3-methoxy-1′,2′,5′,6′-tetrahydro-[2,3′-bipyridin]-5-yl)acetamide]		
	54%		COc1cc(NC(=O)Cc2ccc(-c3ccc(C#N)c(F)c3)nc2)ncc1Cl [Compound 149, N-(5-chloro-4-methoxypyridin-2-yl)-2-(6-(4-cyano-3-fluorophenyl)pyridin-3-yl)acetamide]		
0.01 to 0.1 µM	79%		Cc1ccc(NC(=O)Cc2ccc(C3=CCCN(C#N)C3)nc2)nc1 [Compound 104, 2-(1′-cyano-1′,2′,5′,6′-tetrahydro-[2,3′-bipyridin]-5-yl)-N-(5-methylpyridin-2-yl)acetamide]		
0.01 to 0.1 µM	72%		COc1cc(C#N)nc(-c2ccc(CC(=O)Nc3cc(OC)c(Cl)cn3)cn2)c1 [Compound 165, N-(5-chloro-4-methoxypyridin-2-yl)-2-(6′-cyano-4′-methoxy-[2,2′-bipyridin]-5-yl)acetamide]		
> 0.1 µM	86%		COc1cc(NC(=O)Cc2ccc(C3CCN(C#N)CC3)nc2)ncc1C1CC1 [Compound 124, 2-(6-(1-cyanopiperidin-4-yl)pyridin-3-yl)-N-(5-cyclopropyl-4-methoxypyridin-2-yl)acetamide]		
> 0.1 µM	84%		CNC(=O)C(C)Oc1cc(NC(=O)Cc2ccc(C3CCCN(C#N)C3)nc2)ncc1Cl (single isomer, unassigned) [Compound 86, 2-((5-chloro-2-(2-(6-(1-cyanopiperidin-3-yl)pyridin-3-yl)acetamido)pyridin-4-yl)oxy)-N-methylpropanamide]		
0.01 to 0.1 µM	95%		N#CN1CCC(c2ccc(CC(=O)Nc3cc(O[C@H]4CCOC4)c(Cl)cn3)cn2)CC1 [Compound 99, (S)-N-(5-chloro-4-((tetrahydrofuran-3-yl)oxy)pyridin-2-yl)-2-(6-(1-cyanopiperidin-4-yl)pyridin-3-yl)acetamide]		
0.01 to 0.1 µM	95%		CSc1ccc(NC(=O)Cc2ccc(C3=CCCN(C#N)C3)nc2)nc1 [Compound 107, 2-(1′-cyano-1′,2′,5′,6′-tetrahydro-[2,3′-bipyridin]-5-yl)-N-(5-(methylthio)pyridin-2-yl)acetamide]		
0.01 to 0.1 µM	98%		COc1cc(NC(=O)Cc2ccc(C3=CC4CN(C#N)CC4C3)cc2)ncc1Cl (stereo not drawn) [Compound 115, N-(5-chloro-4-methoxypyridin-2-yl)-2-(4-(2-cyano-1,2,3,3a,4,6a-hexahydrocyclopenta[c]pyrrol-5-yl)phenyl)acetamide]		
< 0.01 µM	100%		N#CN1CCC=C(c2ccc(CC(=O)Nc3cc(Cl)c(Cl)cn3)cn2)C1 [Compound 105, 2-(1′-cyano-1′,2′,5′,6′-tetrahydro-[2,3′-bipyridin]-5-yl)-N-(4,5-dichloropyridin-2-yl)acetamide]		
> 0.1 µM	94%		COc1cc(NC(=O)Cc2ccc(-c3cc(N4CCC(C)(O)C4)cc(C#N)n3)nc2)ncc1Cl (stereo not drawn) [Compound 194, N-(5-chloro-4-methoxypyridin-2-yl)-2-(6′-cyano-4′-(3-hydroxy-3-methylpyrrolidin-1-yl)-[2,2′-bipyridin]-5-yl)acetamide]		
< 0.01 µM	77%		N#Cc1cccc(-c2ccc(CC(=O)Nc3cc(O[C@@H]4CCOC4)c(Cl)cn3)cn2)n1 [Compound 154, (R)-N-(5-chloro-4-((tetrahydrofuran-3-yl)oxy)pyridin-2-yl)-2-(6′-cyano-[2,2′-bipyridin]-5-yl)acetamide]		
0.01 to 0.1 µM	94%		CN1CCC(Oc2cc(NC(=O)Cc3ccc(C4CCN(C#N)CC4)nc3)ncc2Cl)CC1 [Compound 129, N-(5-chloro-4-((1-methylpiperidin-4-yl)oxy)pyridin-2-yl)-2-(6-(1-cyanopiperidin-4-yl)pyridin-3-yl)acetamide]		
> 0.1 µM	78%		CN1CC[C@@H](Oc2cc(NC(=O)Cc3ccc(C4CCN(C#N)CC4)nc3)ncc2Cl)C1 [Compound 119, (R)-N-(5-chloro-4-((1-methylpyrrolidin-3-yl)oxy)pyridin-2-yl)-2-(6-(1-cyanopiperidin-4-yl)pyridin-3-yl)acetamide]		
0.01 to 0.1 µM	84%		COc1cc(NC(=O)Cc2ccc(-c3cc(N4C[C@H]5CC[C@@H](C4)O5)cc(C#N)n3)nc2)ncc1Cl [Compound 195, 2-(4′-((1R,5S)-8-oxa-3-azabicyclo[3.2.1]octan-3-yl)-6′-cyano-[2,2′-bipyridin]-5-yl)-N-(5-chloro-4-methoxypyridin-2-yl)acetamide]		
